Laboratory results: patent publication US20080167461A1, “Process for Preparing 3,6-Dichloropyridazine-1-Oxide” (SANKYO AGRO COMPANY, LIMITED, priority 2005, published 2008)

Key:
[1] = system: Scirpus joncoides; experiment: Treatment prior to germination of rice paddy weeds (flooding soil treatment, pot test); type: in vivo; conditions: dose 10 g/a; wettable powder diluted with water, treated 3 days after transplant under flooding; evaluated 25 days after treatment
From the text: (§1) Rice paddy soil was filled into a 1/10,000a pot, followed by mixing seeds of dormancy awakening Echinochloa oryzicola and Scirpus joncoides, and annual broadleaf weeds (Lindernia spp. and Rotala indica) in 1 cm of the surface layer of soil. In addition, Cyperus serotinus tubers subjected to accelerated germination were planted, followed by transplanting rice seedlings at the 2.2 leaf stage and growing under flooding conditions in a greenhouse. Three days after transplant, a predetermined dose of the wettable powder prepared according to Reference Example 2 was diluted with water, the soil was treated with a spraying solution thereof under flooding conditions and herbicidal effects and chemical damage to the transplanted rice plants were measured according to the evaluation criteria shown below 25 days after treatment.
(§2) 0: Growth inhibition rate 0 to 10%
(§3) 1: Growth inhibition rate 11 to 30%
(§4) 2: Growth inhibition rate 31 to 50%
(§5) 3: Growth inhibition rate 51 to 70%
(§6) 4: Growth inhibition rate 71 to 90%
(§7) 5: Growth inhibition rate 91 to 100%

[2] = system: annual broadleaf weeds (Lindernia spp. and Rotala indica); experiment: as above; type: in vivo; conditions: dose 10 g/a; wettable powder diluted with water, treated 3 days after transplant under flooding; evaluated 25 days after treatment
From the text: as §1, §2, §3, §4, §5, §6, §7

[3] = system: Echinochloa oryzicola; experiment: as above; type: in vivo; conditions: dose 10 g/a; wettable powder diluted with water, treated 3 days after transplant under flooding; evaluated 25 days after treatment
From the text: as §1, §2, §3, §4, §5, §6, §7

[4] = system: Cyperus serotinus; experiment: as above; type: in vivo; conditions: dose 10 g/a; wettable powder diluted with water, treated 3 days after transplant under flooding; evaluated 25 days after treatment
From the text: as §1, §2, §3, §4, §5, §6, §7

[5] = system: rice plants; experiment: Chemical damage to transplanted rice plants (flooding soil treatment, pot test); type: in vivo
From the text: as §1, §2, §3, §4, §5, §6, §7

[6] = system: dominant weeds of rice paddies; experiment: Herbicidal activity in rice paddies, flooding soil treatment before or after weed germination (general statement); type: in vivo
From the text: The compound synthesized in Reference Example 1 has herbicidal action, and can be used as a herbicide.

Cc1cccc(C)c1Oc1nnc(Cl)cc1O [Reference Example 1, 6-Chloro-3-(2,6-dimethylphenoxy)-4-pyridazinol]
melting point: 214 to 215 °C
herbicidal activity (growth inhibition grade) against Scirpus joncoides [1]: 5 (Growth inhibition rate 91 to 100%)
herbicidal activity (growth inhibition grade) against broadleaf weeds [2]: 5 (Growth inhibition rate 91 to 100%)
herbicidal activity (growth inhibition grade) against Echinochloa oryzicola [3]: 2 (Growth inhibition rate 31 to 50%)
herbicidal activity (growth inhibition grade) against Cyperus serotinus [4]: 5 (Growth inhibition rate 91 to 100%)
chemical toxicity with respect to rice ([5]; flooding soil treatment before or after weed germination, general statement): without demonstrating problems in terms of chemical toxicity
activity against rice plants (chemical damage grade) ([5]; transplanted rice seedlings (2.2 leaf stage), dose 10 g/a, evaluated 25 days after treatment): 0 (Growth inhibition rate 0 to 10%)
herbicidal activity against dominant weeds of rice paddies [6]: demonstrates herbicidal activity
